Source: patent publication US20130217664A1, “NOVEL COMPOUNDS USEFUL FOR THE TREATMENT OF DEGENERATIVE AND INFLAMMATORY DISEASES” (priority 2012, published 2013)
Like-named read-outs stand apart in the source and are kept apart here.

How the values were obtained:
[1] = tested on: pSTAT1(2)-luciferase reporter in HeLa cells triggered with human OSM; assay: JAK-STAT signalling assay; assay type: cell-based; conditions: HeLa cells, pSTAT1(2)-luciferase reporter, human OSM 33 ng/mL, read-out: JAK-STAT IC50
How it was run: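 HeLa cells transiently co-transfected with pSTAT1(2)-luciferase and LacZ control reporter, preincubated with compound 60 min, then stimulated with human OSM (33 ng/mL final) overnight at 37 °C. Luciferase read by luminescence; percent inhibition from vehicle and no-trigger controls, EC50 from dose-response.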

human JAK1 = molecular target: T1, human JAK1 (Homo sapiens, UniProt P23458); assay: JAK1 inhibition assay (polyGT substrate / Ulight-JAK1 peptide); assay type: biochemical; conditions: recombinant human JAK1 catalytic domain; polyGT or Ulight-JAK1 peptide assay
T1 construct: catalytic domain, amino acids 866-1154; catalog number PV4774; purchased Invitrogen PV4774
T1 sequence (P23458 866-1154): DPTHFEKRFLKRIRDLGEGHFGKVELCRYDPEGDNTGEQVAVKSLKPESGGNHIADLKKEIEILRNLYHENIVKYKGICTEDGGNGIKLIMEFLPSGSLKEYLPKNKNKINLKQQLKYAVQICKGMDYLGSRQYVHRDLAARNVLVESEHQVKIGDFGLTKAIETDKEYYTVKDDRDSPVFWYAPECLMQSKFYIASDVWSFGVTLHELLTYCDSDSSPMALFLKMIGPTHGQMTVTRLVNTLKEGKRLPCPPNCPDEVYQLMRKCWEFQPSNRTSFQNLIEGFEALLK
How it was run: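 Two formats. PolyGT radiometric: 45 min at 30 °C, stopped with phosphoric acid, counted as cpm. Ulight-JAK1 peptide: 60 min at room temperature, stopped with Eu-anti-phosphotyrosine/EDTA, read as RFU. Percent inhibition normalised to vehicle and 10 μM staurosporine.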

CTLL-2 cell line = assay: CTLL2 viability assay; assay type: cell-based; conditions: Mus musculus, IL-2 dependent CTLL2 viability, 24 h, ATP-lite
Excerpt: The protocol describes the methods to analyse the activity of compounds on their ability to sustain the IL2-dependent viability of CTLL2.
Final DMSO concentration was 0.1%.

human JAK3 = molecular target: T2, human JAK3 (Homo sapiens, UniProt P52333); assay: JAK3 inhibition assay; assay type: biochemical; conditions: recombinant human JAK3 catalytic domain; polyGT substrate
T2 construct: catalytic domain (amino acids 781-1124; catalog number PV3855); purchased Invitrogen PV3855
T2 sequence (P52333 781-1124): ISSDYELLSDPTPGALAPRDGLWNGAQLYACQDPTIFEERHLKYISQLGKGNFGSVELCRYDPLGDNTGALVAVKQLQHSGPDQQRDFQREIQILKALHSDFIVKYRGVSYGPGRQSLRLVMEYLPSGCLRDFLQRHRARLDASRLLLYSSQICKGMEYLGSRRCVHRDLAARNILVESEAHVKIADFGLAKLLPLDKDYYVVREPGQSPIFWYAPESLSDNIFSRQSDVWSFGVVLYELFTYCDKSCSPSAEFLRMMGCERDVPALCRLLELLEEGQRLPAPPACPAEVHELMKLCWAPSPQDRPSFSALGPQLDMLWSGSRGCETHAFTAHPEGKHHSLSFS
How it was run: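 Radiometric kinase assay: 0.5 ng JAK3 with 2.5 μg polyGT in Tris pH 7.5/MgCl2 buffer, 1 μM ATP plus 0.25 μCi 33P-γ-ATP, 1% DMSO, 45 min at 30 °C, stopped with phosphoric acid.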

human TYK2 = molecular target: T3, human TYK2 (Homo sapiens, UniProt P29597); assay: TYK2 inhibition assay; assay type: biochemical; conditions: recombinant human TYK2 catalytic domain, polyGT substrate
T3 construct: catalytic domain (amino acids 871-1187; catalog number 08-147); purchased Carna Biosciences 08-147
T3 sequence (P29597 871-1187): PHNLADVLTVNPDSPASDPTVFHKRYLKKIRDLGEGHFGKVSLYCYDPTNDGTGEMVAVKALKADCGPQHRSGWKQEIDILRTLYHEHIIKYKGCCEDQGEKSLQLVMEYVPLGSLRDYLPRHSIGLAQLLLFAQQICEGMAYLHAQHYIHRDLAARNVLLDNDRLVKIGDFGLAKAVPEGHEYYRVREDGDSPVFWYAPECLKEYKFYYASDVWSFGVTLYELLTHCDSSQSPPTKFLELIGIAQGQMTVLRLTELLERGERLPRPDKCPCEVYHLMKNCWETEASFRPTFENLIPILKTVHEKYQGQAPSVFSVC
How it was run: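 Radiometric kinase reaction run 90 min at 30 °C, stopped with phosphoric acid, washed and scintillation-counted.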

BA/F3 cell line = assay: BA/F3 viability assay; conditions: Mus musculus, BaF3, 48 h, read-out: BA/F3 IC50

| SMILES | IC50 ([1]; Homo sapiens, HeLa) | IC50 (human JAK1) | IC50 (CTLL-2 cell line) | IC50 (human JAK3) | IC50 (human TYK2) | IC50 (BA/F3 cell line) | IC50 [1] |
| --- | --- | --- | --- | --- | --- | --- | --- |
| CCc1cc(CNS(=O)(=O)CC(F)(F)F)ccc1N(C)c1cc2c(cn1)ncn2C [Compound 244, N-(3-ethyl-4-(methyl(1-methyl-1H-imidazo[4,5-c]pyridin-6-yl)amino)benzyl)-2,2,2-trifluoroethane sulfonamide] | 1 to 500 nM | 0.01 to 100 nM | > 1000 nM | 0.01 to 100 nM | 0.01 to 100 nM | 1000 to 5000 nM |  |
| CCc1cc(C2=CCN(C(=O)C3(O)CC3)CC2)ccc1N(C)c1cc2c(cn1)ncn2C [Compound 229, (4-(3-ethyl-4-(methyl(1-methyl-1H-imidazo[4,5-c]pyridin-6-yl)amino)phenyl)-5,6-dihydropyridin-1(2H)-yl)(1-hydroxycyclopropyl)meth-anone] | 1 to 500 nM | 0.01 to 100 nM | > 1000 nM | 101 to 500 nM | 0.01 to 100 nM | 1000 to 5000 nM |  |
| CCc1cc(CNC(=O)C(F)F)ccc1N(C)c1cc2c(cn1)ncn2C [Compound 256, N-(3-ethyl-4-(methyl(1-methyl-1H-imidazo[4,5-c]pyridin-6-yl)amino)benzyl)-2,2-difluoroacetamide] | 1 to 500 nM | 0.01 to 100 nM | > 1000 nM | 0.01 to 100 nM | 101 to 500 nM | > 5000 nM |  |
| CCc1cc(CNS(=O)(=O)C2CC2)ccc1N(C)c1cc2c(cn1)ncn2C [Compound 227, N-(3-ethyl-4-(methyl(1-methyl-1H-imidazo[4,5-c]pyridin-6-yl)amino)benzyl)cyclopro-panesulfonamide] |  | 0.01 to 100 nM | > 1000 nM | 501 to 1000 nM | 101 to 500 nM | > 5000 nM | 501 to 1000 nM |
| CCc1cc(CNS(=O)(=O)CC#N)ccc1N(C)c1cc2c(cn1)ncn2C [Compound 228, 1-cyano-N-(3-ethyl-4-(methyl(1-methyl-1H-imidazo[4,5-c]pyridin-6-yl)amino)benzyl)methane-sulfonamide] | 1 to 500 nM | 0.01 to 100 nM | 1 to 500 nM | 0.01 to 100 nM | 0.01 to 100 nM | > 5000 nM |  |
| CCc1cc(C2=CCN(C(=O)[C@@H](C)O)CC2)ccc1N(C)c1cc2c(cn1)ncn2C [Compound 248, (R)-1-(4-(3-ethyl-4-(methyl(1-methyl-1H-imidazo[4,5-c]pyridin-6-yl)amino)phenyl)-5,6-dihydropyridin-1(2H)-yl)-2-hydroxypropan-1-one] | 1 to 500 nM | 0.01 to 100 nM | > 1000 nM | 0.01 to 100 nM | 0.01 to 100 nM | 1000 to 5000 nM |  |
| CCc1cc(-c2cncs2)ccc1N(C)c1cc2c(cn1)ncn2C [Compound 151, N-(2-Ethyl-4-(thiazol-5-yl)phenyl)-N,1-dimethyl-1H-imidazo[4,5-c]pyridin-6-amine] | 1 to 500 nM | 0.01 to 100 nM | > 1000 nM | 0.01 to 100 nM | 0.01 to 100 nM | 1000 to 5000 nM |  |
| CCc1cc(CNS(C)(=O)=O)ccc1N(C)c1cc2c(cn1)ncn2C [Compound 190, N-(3-Ethyl-4-(methyl(1-methyl-1H-imidazo[4,5-c]pyridin-6-yl)amino)benzyl)methane sulfonamide] | 1 to 500 nM | 0.01 to 100 nM | > 1000 nM | 0.01 to 100 nM | 0.01 to 100 nM | 1000 to 5000 nM |  |
| CCc1cc(-c2cn[nH]c2)ccc1N(C)c1cc2c(cn1)ncn2C [Compound 210, N-(2-ethyl-4-(1H-pyrazol-4-yl)phenyl)-N,1-dimethyl-1H-imidazo[4,5-c]pyridin-6-amine] | 1 to 500 nM | 0.01 to 100 nM | > 1000 nM | 0.01 to 100 nM | 0.01 to 100 nM | 1 to 1000 nM |  |
| CCc1cc(-c2cnn(C)c2)ncc1N(C)c1cc2c(cn1)ncn2C [Compound 280, N-(4-Ethyl-6-(1-methyl-1H-pyrazol-4-yl)pyridin-3-yl)-N,1-dimethyl-1H-imidazo[4,5-c]pyridin-6-amine] |  | 0.01 to 100 nM | > 1000 nM | > 1000 nM | 101 to 500 nM | > 5000 nM | > 1000 nM |
